Measurements: patent US7101878B1 (Agouron Pharmaceuticals, Inc., priority 1998, dated 2006)
Read-outs that look alike come from different tables or passages of the source.

What was measured:
mouse GnRH receptor = target: T1, mouse GnRH receptor (Mus musculus, UniProt Q01776); experiment: Radioligand binding, 125I-GnRH-A, 293 cells expressing mouse GnRH receptors
T1 construct: expressed in transfected cells; host or cells: 293 cells
T1 sequence (Q01776 1-327): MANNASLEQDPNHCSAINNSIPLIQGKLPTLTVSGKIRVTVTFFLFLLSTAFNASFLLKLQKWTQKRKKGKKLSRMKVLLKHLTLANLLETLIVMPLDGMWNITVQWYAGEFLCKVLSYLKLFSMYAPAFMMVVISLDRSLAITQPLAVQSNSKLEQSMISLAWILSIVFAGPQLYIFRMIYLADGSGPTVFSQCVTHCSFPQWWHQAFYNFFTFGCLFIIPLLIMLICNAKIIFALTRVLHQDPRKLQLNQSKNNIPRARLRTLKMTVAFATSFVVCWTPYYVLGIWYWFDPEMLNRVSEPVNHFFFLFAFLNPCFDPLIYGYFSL
Summary of the method: (§1)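 Bound label captured on 0.1% polyethyleneimine-treated GF/C filters, washed three times with PBS, counted. IC50 derived; identical set-up for every species.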

rat GnRH receptor = target: T2, rat GnRH receptor (Rattus norvegicus, UniProt P30969); experiment: Radioligand binding, 125I-GnRH-A, rat pituitary membranes; set-up: membranes were prepared from rat pituitary; from tissue; host or cells: rat pituitary
T2 sequence (P30969 1-327): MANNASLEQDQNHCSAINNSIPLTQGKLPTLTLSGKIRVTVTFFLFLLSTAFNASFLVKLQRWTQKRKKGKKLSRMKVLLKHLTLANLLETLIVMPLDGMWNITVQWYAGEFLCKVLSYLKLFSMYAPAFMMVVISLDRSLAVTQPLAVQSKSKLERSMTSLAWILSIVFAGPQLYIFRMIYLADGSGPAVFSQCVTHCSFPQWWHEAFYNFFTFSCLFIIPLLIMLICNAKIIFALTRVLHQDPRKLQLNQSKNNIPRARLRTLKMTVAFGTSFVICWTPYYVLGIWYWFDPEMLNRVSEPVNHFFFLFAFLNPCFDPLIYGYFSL
Summary of the method: as §1

bovine GnRH receptor = target: T3, bovine GnRH receptor (Bos taurus, UniProt P32236); experiment: Radioligand binding, 125I-GnRH-A, bovine pituitary membranes
T3 construct: membranes were prepared from bovine pituitary; from tissue; host or cells: bovine pituitary
T3 sequence (P32236 1-328): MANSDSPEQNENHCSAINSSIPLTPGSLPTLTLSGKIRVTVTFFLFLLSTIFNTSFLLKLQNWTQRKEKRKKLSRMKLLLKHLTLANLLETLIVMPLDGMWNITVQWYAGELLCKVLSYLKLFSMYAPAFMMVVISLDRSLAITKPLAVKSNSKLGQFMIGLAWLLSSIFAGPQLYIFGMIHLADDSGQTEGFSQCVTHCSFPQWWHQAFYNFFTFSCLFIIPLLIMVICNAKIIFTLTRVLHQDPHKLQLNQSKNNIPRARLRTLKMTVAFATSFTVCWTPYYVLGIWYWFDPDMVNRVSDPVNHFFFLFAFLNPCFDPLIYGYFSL
Summary of the method: as §1

hGnRH receptor = target: T4, hGnRH receptor (Homo sapiens, UniProt P30968); experiment: Total inositol phosphates measurement, 293 cells containing the hGnRH receptor; format: cell-based; conditions: for GnRH functional: no species or readout annotated
T4 construct: expressed in transfected cells; host or cells: HEK 293 (hGnRH-R/293, from Dr. Stuart Sealfon)
T4 sequence (P30968 1-328): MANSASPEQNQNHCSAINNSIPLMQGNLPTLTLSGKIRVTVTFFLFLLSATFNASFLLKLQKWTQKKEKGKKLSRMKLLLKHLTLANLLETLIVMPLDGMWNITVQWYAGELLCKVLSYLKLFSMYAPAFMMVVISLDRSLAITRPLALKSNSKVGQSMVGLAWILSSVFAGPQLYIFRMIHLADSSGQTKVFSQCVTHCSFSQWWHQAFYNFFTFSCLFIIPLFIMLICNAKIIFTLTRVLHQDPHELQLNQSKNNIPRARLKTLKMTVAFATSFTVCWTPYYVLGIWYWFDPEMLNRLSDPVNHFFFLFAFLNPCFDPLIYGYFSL
Description: To assess the activity of the compounds as agonists or antagonists, an assay measuring accumulation of total inositol phosphates was employed. 293 cells containing the hGnRH receptor were plated onto 24-well plates (approximately 200,000 cells/well) using DMEM media. […] The medium was aspirated and the cells rinsed with serum-free DMEM. The medium was aspirated and the cells were then treated with test compounds or vehicle for 30 minutes at 37° C. […] The media was replaced with ice-cold 10 mM formic acid, which stopped the reaction and also served to extract cellular lipids. Inositol phosphates were separated by ion-exchange chromatography on Dowex columns, which were washed with 2.5 mL of 10 mM myoinositol and 10 mM formic acid. The columns were then washed with 5 mL of 60 mM sodium formate and […], and total inositol phosphates were eluted with 5 mL 1M ammonium formate, 0.1 M formic acid. The column eluates were added to liquid scintillation vials containing 15 ml of scintillation cocktail and were counted by liquid scintillation counting.
This cell line was provided by Dr. Stuart Sealfon, Mount Sinai Medical School New York, N.Y. These cells were grown in DMEM supplemented with 0.2 g/L G418 100 U/ml penicillin/streptomycin and 10% FBS. Both GGH3 and hGnRH-R/293 cells were utilized for both for both total inositol phosphate measurement and for microphysiometry assessment of compound efficacy.

human GnRH receptor = target: T5, human GnRH receptor (Homo sapiens, UniProt P30968); experiment: Radioligand binding, 125I-GnRH-A displacement, membranes of HEK 293 cells with human GnRH receptor
T5 construct: expressed in transfected cells; host or cells: HEK 293 (hGnRH-R/293, from Dr. Stuart Sealfon)
T5 sequence (P30968 1-328): T4 sequence (P30968 1-328)
Summary of the method: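 Bound tracer was separated by filtration through polyethyleneimine-soaked GF/C filters and counted by liquid scintillation. IC50 from curve fitting; other species were tested under the same conditions.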

[1] = Pharmacokinetic studies / bioavailability in rats; format: in vivo, rat; conditions: for half-life / Cmax / Tmax: rat, plasma; for Cmax / Tmax: po, p.o. 10 mg/kg; for Cmax / Tmax / Fp.o.: 5 mg/ml solution in 10% DMSO 10% cremophor 80% saline
[2] = Metabolism rate, pmol/min/mg at 1 μM, rat male; format: in vitro ADME; conditions: 1 μM compound
[3] = Metabolism rate, pmol/min/mg at 1 μM, human; format: in vitro ADME; conditions: 1 μM compound
[4] = Metabolism rate, pmol/min/mg at 1 μM, rat female; format: in vitro ADME; conditions: 1 μM compound
[5] = test system: LH levels in castrated rats; experiment: Castrated male rat model, LH suppression; format: in vivo; conditions: 10 mg/kg iv
Text: Experimental Protocol: Male Sprague-Dawley (225-250 g) rats were castrated and allowed 10 days postoperative recovery. Ten days post castration animals were instrumented with indwelling femoral venous and arterial catheters to facilitate remote infusions and blood sampling. On the day of the experiment, animals were allowed to acclimate to the procedure room while residing in their home cage. Basal blood samples were drawn from all animals. Following basal sampling, either vehicle (10% DMSO, 10% cremophor/saline), Antide (1.0 μg) or compound 11 (10 mg/kg) was administered intravenously. Blood samples were drawn 10, 60, 90, 120, 180, 240 minutes after injections. Blood was centrifuged, serum collected and stored in −70° freezer until assayed. Serum samples were analyzed using DSL-4600 ACTIVE LH coated-tube immunoradiometric assay kit from Diagnostic Systems Laboratories, Inc.
Surgical removal of the gonads removes circulating testosterone and eliminates the negative feedback of testosterone on the hypothalamus. […] This model seems suitable for evaluating small molecule GnRH antagonists.
Male Sprague-Dawley ([…]) rats were castrated via the scrotal approach under halothane anesthesia. Animals were allowed 14 days post operative recovery prior to study. Thirteen days following castration, animals were anesthetized with halothane and instrumented with indwelling jugular vein cannula. Details of the cannulation procedure have been described previously {Harms and Ojeda, 1974)}. On study day, animals were allowed to acclimate to the procedure room while residing in their home cage. Basal blood samples were drawn from all animals. Immediately following basal sampling, vehicle or test compounds were administered by various routes. The routes of administration employed were intravenous (iv), intramuscular (im), intraperitoneal (ip), subcutaneous (sc) and oral (po). Blood samples were drawn into heparin containing tubes at multiple time points post treatment. Blood was centrifuged immediately, plasma collected and stored in −20° freezer until assayed. Plasma samples were analyzed using DSL-4600 ACTIVE LH coated-tube immunoradiometric assay kit from Diagnostic Systems Laboratories, Inc.
Formulation #1 (denoted with superscript 1): 10% DMSO, 10% Cremophor EL and 80% physiological saline.
Formulation #2 (denoted with superscript 2): 10% Cremophor EL and 90% physiological saline.

[6] = second value marked * (mostly in parentheses), asterisk not explained, read-out: hGnRH IC50, value marked *

Row | Structure (SMILES) | IC50 (mouse GnRH receptor; read-out: mGnRH IC50) [nM] | IC50 (rat GnRH receptor; read-out: rGnRH IC50) [nM] | IC50 (human GnRH receptor; read-out: hGnRH IC50) [nM] | IC50 (bovine GnRH receptor; read-out: bGnRH IC50) [nM] | GnRH functional (hGnRH receptor) | Rat male pmol/min/mg 1 μM [2] [pmol/min/mg] | Human pmol/min/mg 1 μM [3] [pmol/min/mg] | Rat female pmol/min/mg 1 μM [4] [pmol/min/mg] | other results
1 | Cc1cc2c(cc1Cc1ccc(C(=O)NCC3CCC(CNC(=N)N)CC3)o1)C(C)(C)CCC2(C)C (centres unmarked) [Compound 9] | 2300 | 680 | 220 | – | – | – | – | – | IC50 (mouse GnRH receptor; means ± SE of at least three experiments performed in duplicate, read-out: Mouse IC50): 2300 ± 460 nM; IC50 (rat GnRH receptor; means ± SE of at least three experiments performed in duplicate, read-out: Rat IC50): 680 ± 120 nM; IC50 (bovine GnRH receptor; means ± SE of at least three experiments performed in duplicate, read-out: Bovine IC50): 3800 ± 220 nM; Kb (hGnRH receptor): 30 nM; IC50 (human GnRH receptor; means ± SE of at least three experiments performed in duplicate, read-out: Human IC50): 220 ± 33 nM; IC50 (human GnRH receptor; [6]): 40 nM
2 | Cc1cc2c(cc1Cc1ccc(C(=O)NC[C@H]3CC[C@@H](CNC(=N)N)CC3)o1)C(C)(C)CCC2(C)C [Compound 23] | 2100 | 730 | 220 | 2830 | Antag- onist | 141 | 263 | – | half-life ([1]; male, iv, 10 mg/kg, rat male): 0.8 h; IC50 (human GnRH receptor; [6]): 40 nM
3 | CCOC(=O)[C@H]1CC[C@H](CNC(=O)c2ccc(Cc3cc4c(cc3C)C(C)(C)CCC4(C)C)o2)CC1 [Compound 31] | 1880 | 2800 | 140 | 8900 | Antag- onist | – | – | – | –
4 | Cc1cc2c(cc1Cc1ccc(C(=O)NCC3CCCCC3)o1)C(C)(C)CCC2(C)C [Compound 36] | 3800 | 2900 | 215 | 12500 | Antag- onist | – | – | – | –
5 | COc1cccc(OC)c1NC(=O)c1ccc(Cc2cc(C(C)(C)C)ccc2C)o1 [Compound 206] | 83 | 23 | 52 | – | – | 1794 | 689 | 330 | % Max LH Suppression [5]: 51%; time of % Max LH Suppression [5]: 1 h
6 | COc1cc(NS(C)(=O)=O)c(NC(=O)c2ccc(Cc3cc4c(cc3C)C(C)(C)CCC4(C)C)o2)c(OC)c1 [Compound 228] | 14 | 57 | 27 | – | – | 320 | 641 | 227 | Cmax ([1]; female, 10 mg/kg, rat female): 70 nM; Tmax ([1]; female, 10 mg/kg, rat female): 0.5 h; half-life ([1]; female, rat female): 2.4 h; Fp.o. ([1]; rat female): 2% (10 mg/kg)^10
7 | COc1cc(C)c(Cl)c(C)c1Cc1ccc(C(=O)Nc2c(OC)cccc2OC)o1 [Compound 233] | 68 | 51 | 60 | – | – | 2988 | 773 | 338 | Cmax ([1]; female, 10 mg/kg, rat female): 340 nM; Tmax ([1]; female, 10 mg/kg, rat female): 1 h; half-life ([1]; female, rat female): 1.4 h; Fp.o. ([1]; rat female): 34% (10 mg/kg)^10
